Results from US20060069132A1, “Azolecarboxamide herbicides” (priority 2004, published 2006).

Columns and labels:
[1] = test system: large crabgrass; assay: Test C pre-/postemergence herbicide test; assay type: in vivo, Digitaria sanguinalis
Summary of the method: (§1)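 Seeds were planted and sprayed preemergence with test chemicals in a non-phytotoxic solvent mixture containing surfactant; postemergence treatments went onto plants 2 to 18 cm tall (1- to 4-leaf stage). After 12 to 14 days in a greenhouse, injury was rated visually against untreated controls on a 0–100 scale.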

[2] = test system: common (oilseed) sunflower; assay: Test C pre-/postemergence herbicide test; assay type: in vivo, Helianthus annuus
Summary of the method: as §1

[3] = test system: pigweed; assay: Test C pre-/postemergence herbicide test; assay type: in vivo, Amaranthus retroflexus
Summary of the method: as §1

[4] = test system: common ragweed; assay: Test C pre-/postemergence herbicide test; assay type: in vivo, Ambrosia elatior; parameters: key to Plant response rating, Ragweed: 0 = no effect, 100 = complete control
Summary of the method: as §1

[5] = test system: lambsquarters; assay: Test C pre-/postemergence herbicide test; assay type: in vivo, Chenopodium album
Summary of the method: as §1

[6] = test system: ducksalad; assay: Test C flooded paddy test; assay type: in vivo, Heteranthera limosa; details: for Plant response rating, Ducksalad: visual rating after 12 to 14 days
[7] = 62 g ai/ha, preemergence, scale 0 to 100
[8] = 125 g ai/ha, scale 0 (no effect) to 100 (complete control), visual, 12 to 14 days, preemergence
[9] = 250 g ai/ha, scale 0-100, preemergence
[10] = 500 g ai/ha, scale 0 to 100 (0 no effect, 100 complete control), visual, 12 to 14 days, preemergence
[11] = 125 g ai/ha, scale 0 to 100 (0 no effect, 100 complete control)
[12] = 250 g ai/ha, scale of 0 to 100, 0 is no effect, 100 is complete control
[13] = 500 g ai/ha, scale 0 to 100 (0 no effect, 100 complete control)
[14] = 125 g ai/ha, scale 0-100, preemergence
[15] = 250 g ai/ha, scale 0 to 100 (0 no effect, 100 complete control), visual, 12 to 14 days, preemergence
[16] = Postemergence, 500 g ai/ha, scale 0 to 100
[17] = Postemergence, 250 g ai/ha, scale 0 to 100, 0 no effect, 100 complete control
[18] = Preemergence, 500 g ai/ha, scale 0 to 100, 0 no effect, 100 complete control
[19] = postemergence, 62 g ai/ha, scale 0 to 100
[20] = postemergence, 125 g ai/ha, scale 0 to 100

CCNC(=O)c1ccc(F)c(NC(=O)C2CC(C(C)(C)C)=NN2CC)c1 (racemic) [Compound 269]
Plant response rating, Crabgrass, Large [1, 7]: 95
Plant response rating, Crabgrass, Large [1, 8]: 100
Plant response rating, Crabgrass, Large [1, 9]: 100
Plant response rating, Crabgrass, Large [1, 10]: 100
Plant response rating, Sunflower [2, 7]: 0
Plant response rating, Sunflower [2, 9]: 5
Plant response rating, Sunflower [2, 10]: 15
Plant response rating, Pigweed [3, 7]: 100
Plant response rating, Pigweed [3, 8]: 100
Plant response rating, Pigweed [3, 9]: 100
Plant response rating, Pigweed [3, 10]: 100
Plant response rating, Ragweed [4, 7]: 5
Plant response rating, Ragweed [4, 9]: 90
Plant response rating, Ragweed [4, 10]: 90
Plant response rating, Lambsquarters [5, 7]: 95
Plant response rating, Lambsquarters [5, 8]: 100
Plant response rating, Lambsquarters [5, 9]: 100
Plant response rating, Lambsquarters [5, 10]: 100
Ducksalad plant response rating ([6]; 62 g ai/ha, scale 0 to 100): 55
Ducksalad plant response rating [6, 11]: 80
Ducksalad plant response rating [6, 12]: 80
Plant response rating, Ducksalad [6, 13]: 85

CCN1N=C(C(C)(C)C)CC1C(=O)Nc1cc(C(=O)N2CC=CC2)ccc1F (racemic) [Compound 310]
Plant response rating, Crabgrass, Large [1, 7]: 30
Plant response rating, Crabgrass, Large [1, 8]: 70
Plant response rating, Crabgrass, Large [1, 9]: 100
Plant response rating, Crabgrass, Large [1, 10]: 100
Plant response rating, Sunflower [2, 7]: 0
Plant response rating, Sunflower [2, 9]: 0
Plant response rating, Sunflower [2, 10]: 0
Plant response rating, Pigweed [3, 7]: 100
Plant response rating, Pigweed [3, 8]: 100
Plant response rating, Pigweed [3, 9]: 100
Plant response rating, Pigweed [3, 10]: 100
Plant response rating, Ragweed [4, 7]: 0
Plant response rating, Ragweed [4, 9]: 50
Plant response rating, Ragweed [4, 10]: 80
Plant response rating, Lambsquarters [5, 7]: 95
Plant response rating, Lambsquarters [5, 8]: 100
Plant response rating, Lambsquarters [5, 9]: 100
Plant response rating, Lambsquarters [5, 10]: 100
Ducksalad plant response rating ([6]; 62 g ai/ha, scale 0 to 100): 45
Ducksalad plant response rating [6, 11]: 75
Ducksalad plant response rating [6, 12]: 80
Plant response rating, Ducksalad [6, 13]: 90

CCNC(=O)c1cccc(NC(=O)c2cc(C(C)(C)C)nn2CC(F)(F)F)c1 [Compound 31]
Plant response rating (0 = no effect, 100 = complete control), Crabgrass, Large ([1]; 62 g ai/ha, preemergence): 90
Plant response rating, Crabgrass, Large [1, 14]: 100
Plant response rating, Crabgrass, Large [1, 15]: 100
Crabgrass, Large plant response rating [1, 16]: 70
Plant response rating, Crabgrass, Large ([1]; Postemergence, 125 g ai/ha, scale 0 to 100, 0 no effect, 100 complete control): 60
Plant response rating, Crabgrass, Large [1, 17]: 60
Crabgrass, Large plant response rating [1, 18]: 100
Plant response rating, Crabgrass, Large [1, 19]: 50
Plant response rating (0 = no effect, 100 = complete control), Sunflower ([2]; 62 g ai/ha, preemergence): 0
Plant response rating, Sunflower [2, 15]: 20
Sunflower plant response rating [2, 18]: 20
Plant response rating (0 = no effect, 100 = complete control), Pigweed ([3]; 62 g ai/ha, preemergence): 100
Plant response rating, Pigweed [3, 15]: 100
Pigweed plant response rating [3, 16]: 100
Plant response rating, Pigweed [3, 17]: 100
Pigweed plant response rating [3, 18]: 100
Plant response rating, Pigweed [3, 20]: 90
Plant response rating, Pigweed [3, 19]: 90
Plant response rating (0 = no effect, 100 = complete control), Ragweed ([4]; 62 g ai/ha, preemergence): 0
Plant response rating, Ragweed [4, 15]: 60
Ragweed plant response rating [4, 16]: 70
Plant response rating, Ragweed [4, 17]: 40
Ragweed plant response rating [4, 18]: 80
Plant response rating, Ragweed [4, 20]: 40
Plant response rating, Ragweed [4, 19]: 30
Plant response rating (0 = no effect, 100 = complete control), Lambsquarters ([5]; 62 g ai/ha, preemergence): 90
Plant response rating, Lambsquarters [5, 14]: 100
Plant response rating, Lambsquarters [5, 15]: 100
Lambsquarters plant response rating [5, 16]: 90
Plant response rating, Lambsquarters [5, 17]: 90
Lambsquarters plant response rating [5, 18]: 100
Plant response rating, Lambsquarters [5, 20]: 80
Plant response rating, Lambsquarters [5, 19]: 80
Ducksalad plant response rating ([6]; 62 g ai/ha, scale 0 to 100 (0 no effect, 100 complete control)): 10
Ducksalad plant response rating ([6]; 125 g ai/ha, scale of 0 to 100, 0 is no effect, 100 is complete control): 20
Plant response rating, Ducksalad ([6]; 250 g ai/ha, scale 0 to 100 (0 no effect, 100 complete control)): 40
Plant response rating, Ducksalad [6, 13]: 60
